Data set [1] is described as follows: Selectivity index, ratio of CC50 for dog MDCK cells to IC50 for influenza A virus A/Duck/Guangdong/99(H5N1). The format is toxicity. Particulars: read-out: Ratio CC50/IC50.
The test system of data set [2] is Influenza A virus. Put plainly: Antiviral activity against influenza A virus A/Duck/Guangdong/99(H5N1) infected in MDCK cells assessed as reduction in virus induced cytopathic effect preincubated for 30 mins with virus followed by viral infection and measured after 48 hrs by microscopy analysis. The format is functional, organism-based.
Data set [3] is described as follows: Cytotoxicity against dog MDCK cells measured after 48 hrs by MTT assay. The format is cell-based, Canis lupus familiaris.
Data set [4] has as its target Neuraminidase (Influenza A virus (A/Puerto Rico/8/1934(H1N1))) (UniProt P03468). Kind of data set: Inhibition of Influenza A virus (A/Puerto Rico/8/34(H1N1) neuraminidase N1 using MUNANA as substrate preincubated for 30 mins followed by substrate addition and further incubated for 1 hr in dark by microplate reader based fluorescence assay.
Data set [5] deals with Vesicular stomatitis virus. Put plainly: Antiviral activity against VSV-G pseudovirus infected in MDCK cells assessed as pseudovirus neutralization preincubated for 30 mins with virus and followed by viral infection and measured after 48 hrs by luciferase assay. The format is functional, organism-based.
In data set [6] the test system is Influenza A virus. Kind of data set: Antiviral activity against influenza A virus A/Duck/Guangdong/99(H5N1) infected in MDCK cells assessed as inhibition of viral replication measured after 48 hr post infection by FITC/DAPI-staining based immunofluorescence microscopy assay. The format is functional, organism-based.
For data set [7], the target named is Hemagglutinin (Influenza A virus) (UniProt B4URE7). Put plainly: Inhibition of influenza A virus HA-mediated chicken erythrocytes hemagglutination measured after 1 hr.
Chain of Hemagglutinin (Influenza A virus) (B4URE7 as listed by the source): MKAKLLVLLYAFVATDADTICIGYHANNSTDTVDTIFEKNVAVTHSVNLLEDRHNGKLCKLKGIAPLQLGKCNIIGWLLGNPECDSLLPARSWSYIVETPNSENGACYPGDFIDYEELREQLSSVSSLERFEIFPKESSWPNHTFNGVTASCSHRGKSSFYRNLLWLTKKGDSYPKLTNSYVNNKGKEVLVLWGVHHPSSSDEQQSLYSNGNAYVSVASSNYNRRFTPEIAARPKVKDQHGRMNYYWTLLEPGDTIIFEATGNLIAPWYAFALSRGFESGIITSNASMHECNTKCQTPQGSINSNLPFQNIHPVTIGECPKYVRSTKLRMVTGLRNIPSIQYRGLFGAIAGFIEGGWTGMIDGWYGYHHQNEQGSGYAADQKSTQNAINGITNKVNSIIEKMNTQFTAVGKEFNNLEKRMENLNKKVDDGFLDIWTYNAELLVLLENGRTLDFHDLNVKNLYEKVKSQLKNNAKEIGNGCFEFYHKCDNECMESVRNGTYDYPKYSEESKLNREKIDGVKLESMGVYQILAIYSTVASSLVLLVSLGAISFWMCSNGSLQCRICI
In data set [8] the test system is Influenza A virus. Kind of data set: Antiviral activity against influenza A virus H5N1 pseudovirus with HA (A/Thailand/Kan353/2004(H5N1) - HA/NA (A/Thailand/Kan353/2004(H5N1) -NA/HIV core plasmids infected in MDCK cells assessed as pseudovirus neutralization incubated for 30 mins with virus followed by viral infection and measured after 48 hrs by luciferase assay. The format is functional, organism-based.

Data set [9] can be described thus: Binding affinity to influenza A virus hemagglutinin 1 by surface plasmon resonance assay.
For data set [10], the target named is Hemagglutinin (Influenza A virus, UniProt B4URE7). Kind of data set: Binding affinity to influenza A virus hemagglutin by surface plasmon resonance assay.
Chain of Hemagglutinin (B4URE7 whole entry): as the sequence (B4URE7 as listed by the source) above

pIC50, pKd: −log10 of the molar value. Active and inactive are the calls of the source. No cut-off for these calls is given here. Bounds are passed on as bounds.

Chain of Neuraminidase (Influenza A virus (A/Puerto Rico/8/1934(H1N1))) (P03468 whole entry): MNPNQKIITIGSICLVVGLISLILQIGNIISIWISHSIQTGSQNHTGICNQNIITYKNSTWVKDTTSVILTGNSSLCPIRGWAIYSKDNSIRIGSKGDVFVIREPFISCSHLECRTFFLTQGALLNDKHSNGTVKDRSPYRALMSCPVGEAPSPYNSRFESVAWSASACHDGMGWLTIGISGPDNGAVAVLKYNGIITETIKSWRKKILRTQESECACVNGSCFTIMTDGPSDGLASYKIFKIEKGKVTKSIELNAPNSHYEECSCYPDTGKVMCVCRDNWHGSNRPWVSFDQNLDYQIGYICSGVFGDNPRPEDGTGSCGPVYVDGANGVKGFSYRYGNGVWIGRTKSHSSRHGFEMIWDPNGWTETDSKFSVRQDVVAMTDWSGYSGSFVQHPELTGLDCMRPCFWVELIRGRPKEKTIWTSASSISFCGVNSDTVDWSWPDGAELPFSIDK

Turning to `C[C@H]1[C@H](C)CC[C@]2(C(=O)Nc3ccccc3Cl)CC[C@]3(C)C(=CC[C@@H]4[C@@]5(C)CC[C@H](O[C@@H]6O[C@H](CO)[C@@H](O[C@@H]7O[C@@H](C)[C@H](O)[C@@H](O)[C@H]7O)[C@H](O)[C@H]6O[C@@H]6O[C@@H](C)[C@H](O)[C@@H](O)[C@H]6O)C(C)(C)[C@@H]5CC[C@]43C)[C@H]12`, the selectivity ratio in data set [1] was found to be 103. The pIC50 in data set [2] was 5.53. This compound returned a 50% cytotoxic concentration (CC50) at 48 h in [3] of 306 µM.

Turning to `C[C@H]1[C@H](C)CC[C@]2(C(=O)NCc3ccccc3)CC[C@]3(C)C(=CC[C@@H]4[C@@]5(C)CC[C@H](O[C@@H]6O[C@H](CO)[C@@H](O[C@@H]7O[C@@H](C)[C@H](O)[C@@H](O)[C@H]7O)[C@H](O)[C@H]6O[C@@H]6O[C@@H](C)[C@H](O)[C@@H](O)[C@H]6O)C(C)(C)[C@@H]5CC[C@]43C)[C@H]12`, in data set [1], the selectivity ratio was determined as 13.2. Also, the pIC50 in data set [2] was 5.03. The CC50 at 48 h in data set [3] came out at 123 µM.

As to `C[C@H]1[C@H](C)CC[C@]2(C(=O)Nc3ccc(Br)cc3)CC[C@]3(C)C(=CC[C@@H]4[C@@]5(C)CC[C@H](O[C@@H]6O[C@H](CO)[C@@H](O[C@@H]7O[C@@H](C)[C@H](O)[C@@H](O)[C@H]7O)[C@H](O)[C@H]6O[C@@H]6O[C@@H](C)[C@H](O)[C@@H](O)[C@H]6O)C(C)(C)[C@@H]5CC[C@]43C)[C@H]12`, the pIC50 in data set [2] is less than 4.30.

With `CNC(=O)[C@]12CC[C@@H](C)[C@H](C)[C@H]1C1=CC[C@@H]3[C@@]4(C)CC[C@H](O[C@@H]5O[C@H](CO)[C@@H](O[C@@H]6O[C@@H](C)[C@H](O)[C@@H](O)[C@H]6O)[C@H](O)[C@H]5O[C@@H]5O[C@@H](C)[C@H](O)[C@@H](O)[C@H]5O)C(C)(C)[C@@H]4CC[C@@]3(C)[C@]1(C)CC2`, the selectivity ratio in data set [1] stood at 60.7. For the same compound, the pIC50 in data set [2] is 4.95. This compound showed a CC50 at 48 h in [3] of 683 µM.

Consider `C[C@H]1[C@H](C)CC[C@]2(C(=O)O)CC[C@]3(C)C(=CC[C@@H]4[C@@]5(C)CC[C@H](O[C@@H]6O[C@H](CO)[C@@H](O[C@@H]7O[C@@H](C)[C@H](O)[C@@H](O)[C@H]7O)[C@H](O)[C@H]6O[C@@H]6O[C@@H](C)[C@H](O)[C@@H](O)[C@H]6O)C(C)(C)[C@@H]5CC[C@]43C)[C@H]12`, for which, in data set [1], the selectivity ratio was determined as 1.5. In addition, in data set [2], the pIC50 was 4.79. In [3], this compound registered a CC50 at 48 h of 25.3 µM.

As to `C[C@H]1[C@H](C)CC[C@]2(C(=O)Nc3cccc(Cl)c3)CC[C@]3(C)C(=CC[C@@H]4[C@@]5(C)CC[C@H](O[C@@H]6O[C@H](CO)[C@@H](O[C@@H]7O[C@@H](C)[C@H](O)[C@@H](O)[C@H]7O)[C@H](O)[C@H]6O[C@@H]6O[C@@H](C)[C@H](O)[C@@H](O)[C@H]6O)C(C)(C)[C@@H]5CC[C@]43C)[C@H]12`, the selectivity ratio in data set [1] was greater than 136. For the same compound, in data set [2], the pIC50 is 5.13. The same compound showed a CC50 at 48 h in data set [3] greater than 1000 µM.

For `C[C@H]1[C@H](C)CC[C@]2(C(=O)Nc3ccc(F)cc3)CC[C@]3(C)C(=CC[C@@H]4[C@@]5(C)CC[C@H](O[C@@H]6O[C@H](CO)[C@@H](O[C@@H]7O[C@@H](C)[C@H](O)[C@@H](O)[C@H]7O)[C@H](O)[C@H]6O[C@@H]6O[C@@H](C)[C@H](O)[C@@H](O)[C@H]6O)C(C)(C)[C@@H]5CC[C@]43C)[C@H]12`, in [1], the selectivity ratio is greater than 189. In addition, in data set [2], the pIC50 is 5.28. The half-maximal cytotoxic concentration (CC50) at 48 h in [3] was greater than 1000 µM.

As to `C[C@H]1[C@H](C)CC[C@]2(C(=O)Nc3ccccc3)CC[C@]3(C)C(=CC[C@@H]4[C@@]5(C)CC[C@H](O[C@@H]6O[C@H](CO)[C@@H](O[C@@H]7O[C@@H](C)[C@H](O)[C@@H](O)[C@H]7O)[C@H](O)[C@H]6O[C@@H]6O[C@@H](C)[C@H](O)[C@@H](O)[C@H]6O)C(C)(C)[C@@H]5CC[C@]43C)[C@H]12`, the selectivity ratio in data set [1] is greater than 171. Further, the pIC50 in data set [2] was 5.23. The compound also gave a 50% cytotoxic concentration (CC50) at 48 h in data set [3] greater than 1000 µM.

Regarding `COc1ccc(NC(=O)[C@]23CC[C@@H](C)[C@H](C)[C@H]2C2=CC[C@@H]4[C@@]5(C)CC[C@H](O[C@@H]6O[C@H](CO)[C@@H](O[C@@H]7O[C@@H](C)[C@H](O)[C@@H](O)[C@H]7O)[C@H](O)[C@H]6O[C@@H]6O[C@@H](C)[C@H](O)[C@@H](O)[C@H]6O)C(C)(C)[C@@H]5CC[C@@]4(C)[C@]2(C)CC3)cc1`, in [4], the inhibition result is “inactive”. Besides, the selectivity ratio in [1] is greater than 472. Also, the negative logarithm of the IC50 (pIC50) in data set [2] was 5.67. In [3], the CC50 at 48 h is greater than 1000 µM.

As for `COc1cccc(NC(=O)[C@]23CC[C@@H](C)[C@H](C)[C@H]2C2=CC[C@@H]4[C@@]5(C)CC[C@H](O[C@@H]6O[C@H](CO)[C@@H](O[C@@H]7O[C@@H](C)[C@H](O)[C@@H](O)[C@H]7O)[C@H](O)[C@H]6O[C@@H]6O[C@@H](C)[C@H](O)[C@@H](O)[C@H]6O)C(C)(C)[C@@H]5CC[C@@]4(C)[C@]2(C)CC3)c1`, the selectivity ratio in data set [1] is greater than 113. Further, the pIC50 in data set [2] is 5.23. In data set [3], this compound had a CC50 at 48 h greater than 1000 µM.

Take `COc1ccccc1NC(=O)[C@]12CC[C@@H](C)[C@H](C)[C@H]1C1=CC[C@@H]3[C@@]4(C)CC[C@H](O[C@@H]5O[C@H](CO)[C@@H](O[C@@H]6O[C@@H](C)[C@H](O)[C@@H](O)[C@H]6O)[C@H](O)[C@H]5O[C@@H]5O[C@@H](C)[C@H](O)[C@@H](O)[C@H]5O)C(C)(C)[C@@H]4CC[C@@]3(C)[C@]1(C)CC2`: the inhibition result in [5] and in data set [4] was “inactive” in each case. Also, the Activity entry in data set [6] was “Dose-dependent effect”. In data set [1], the selectivity ratio is greater than 952. For the same compound, the inhibition result in [7] is “Dose-dependent effect”. The pIC50 was 5.98 in data set [2] and 5.89 in data set [8]. Besides, the CC50 at 48 h in [3] is greater than 1000 µM. In addition, the negative logarithm of the Kd (pKd) in data set [9] was 6.36; in data set [10] it was 8.91.

With `C[C@H]1[C@H](C)CC[C@]2(C(=O)NCCN(C)C)CC[C@]3(C)C(=CC[C@@H]4[C@@]5(C)CC[C@H](O[C@@H]6O[C@H](CO)[C@@H](O[C@@H]7O[C@@H](C)[C@H](O)[C@@H](O)[C@H]7O)[C@H](O)[C@H]6O[C@@H]6O[C@@H](C)[C@H](O)[C@@H](O)[C@H]6O)C(C)(C)[C@@H]5CC[C@]43C)[C@H]12`, the pIC50 in data set [2] was less than 4.30.

Consider `C[C@H]1[C@H](C)CC[C@]2(C(=O)N3CCCC3)CC[C@]3(C)C(=CC[C@@H]4[C@@]5(C)CC[C@H](O[C@@H]6O[C@H](CO)[C@@H](O[C@@H]7O[C@@H](C)[C@H](O)[C@@H](O)[C@H]7O)[C@H](O)[C@H]6O[C@@H]6O[C@@H](C)[C@H](O)[C@@H](O)[C@H]6O)C(C)(C)[C@@H]5CC[C@]43C)[C@H]12`, for which, in data set [1], the selectivity ratio turned out to be 13. Moreover, in data set [2], the negative logarithm of the IC50 (pIC50) is 5.49. In [3], this compound gave a cytotoxic concentration (CC50) at 48 h of 42.4 µM.

With `C[C@H]1[C@H](C)CC[C@]2(C(=O)Nc3ccc(Cl)cc3)CC[C@]3(C)C(=CC[C@@H]4[C@@]5(C)CC[C@H](O[C@@H]6O[C@H](CO)[C@@H](O[C@@H]7O[C@@H](C)[C@H](O)[C@@H](O)[C@H]7O)[C@H](O)[C@H]6O[C@@H]6O[C@@H](C)[C@H](O)[C@@H](O)[C@H]6O)C(C)(C)[C@@H]5CC[C@]43C)[C@H]12`, in data set [4], the inhibition entry is “inactive”. In data set [1], the selectivity ratio was greater than 287. In data set [2], the pIC50 was 5.46. In data set [3], this compound showed a 50% cytotoxic concentration (CC50) at 48 h greater than 1000 µM.

On to `C[C@H]1[C@H](C)CC[C@]2(C(=O)Nc3ccc(OC(F)(F)F)cc3)CC[C@]3(C)C(=CC[C@@H]4[C@@]5(C)CC[C@H](O[C@@H]6O[C@H](CO)[C@@H](O[C@@H]7O[C@@H](C)[C@H](O)[C@@H](O)[C@H]7O)[C@H](O)[C@H]6O[C@@H]6O[C@@H](C)[C@H](O)[C@@H](O)[C@H]6O)C(C)(C)[C@@H]5CC[C@]43C)[C@H]12`, for which the selectivity ratio in data set [1] was 52.6. The pIC50 in data set [2] was 5.07. Also, in data set [3], the midpoint of cytotoxicity, the CC50 at 48 h, lay at 451 µM.

For the compound `COc1ccc(CNC(=O)[C@]23CC[C@@H](C)[C@H](C)[C@H]2C2=CC[C@@H]4[C@@]5(C)CC[C@H](O[C@@H]6O[C@H](CO)[C@@H](O[C@@H]7O[C@@H](C)[C@H](O)[C@@H](O)[C@H]7O)[C@H](O)[C@H]6O[C@@H]6O[C@@H](C)[C@H](O)[C@@H](O)[C@H]6O)C(C)(C)[C@@H]5CC[C@@]4(C)[C@]2(C)CC3)cc1`, in [1], the selectivity ratio amounted to 11.5. In addition, in [2], the pIC50 is 5.06. The CC50 at 48 h in data set [3] turned out to be 100 µM.

The record behind these values is ChEMBL document CHEMBL4393734, “Structure-aided optimization of 3-O-β-chacotriosyl ursolic acid as novel H5N1 entry inhibitors with high selective index” (Bioorg Med Chem, 2019).
